pEC50: −log10 of the molar value.
Key:
Assay type in all cases: cell-based
[1] = target: T1, human cloned CHRM4 receptor (M4_CHO cells) (Homo sapiens, UniProt P08173); test: CHRM4 Ca++ Flux Assay (agonist mode, FDSS 7000EX); conditions: for M4 FDSS PA: Percent Activity; for pEC50: geometric mean if tested more than once, read-out: M4 FDSS EC50
T1 construct: expressed in transfected cells; host or cells: CHO-K1
T1 sequence (P08173 1-479): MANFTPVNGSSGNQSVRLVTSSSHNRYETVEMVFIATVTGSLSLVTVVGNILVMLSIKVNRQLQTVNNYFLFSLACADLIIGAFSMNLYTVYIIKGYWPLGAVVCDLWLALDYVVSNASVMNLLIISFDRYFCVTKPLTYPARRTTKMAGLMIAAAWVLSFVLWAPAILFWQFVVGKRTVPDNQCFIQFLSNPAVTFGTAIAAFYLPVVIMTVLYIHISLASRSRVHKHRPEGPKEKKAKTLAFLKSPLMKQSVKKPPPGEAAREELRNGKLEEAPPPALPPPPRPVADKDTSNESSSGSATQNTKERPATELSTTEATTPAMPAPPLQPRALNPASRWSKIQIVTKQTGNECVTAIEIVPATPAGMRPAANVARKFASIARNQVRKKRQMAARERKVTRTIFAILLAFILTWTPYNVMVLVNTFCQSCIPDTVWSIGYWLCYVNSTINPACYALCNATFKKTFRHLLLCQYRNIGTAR
Method in brief: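 Agonist-mode response was expressed as percent of the Carbachol EC100 and fitted with four-parameter nonlinear regression over an 11-point triplicate dose series. Intracellular Ca++ was tracked for 3 min by fluorescent dye in CHO-K1 cells stably expressing human CHRM4. Cells were preincubated 60 min with 20 μM ATP in buffer containing 2.5 mM probenecid.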

[2] = target: T2, human cloned CHRM3 receptor (M3_CHO cells) (Homo sapiens, UniProt P20309); test: CHRM3 Ca++ Flux Assay (agonist mode, FDSS 7000EX); conditions: for M3 FDSS PA: Percent Activity measured to EC100 of Carbachol; for pEC50: agonist mode, geometric mean if tested more than once, read-out: M3 FDSS EC50
T2 construct: expressed in transfected cells; host or cells: CHO-K1
T2 sequence (P20309 whole entry): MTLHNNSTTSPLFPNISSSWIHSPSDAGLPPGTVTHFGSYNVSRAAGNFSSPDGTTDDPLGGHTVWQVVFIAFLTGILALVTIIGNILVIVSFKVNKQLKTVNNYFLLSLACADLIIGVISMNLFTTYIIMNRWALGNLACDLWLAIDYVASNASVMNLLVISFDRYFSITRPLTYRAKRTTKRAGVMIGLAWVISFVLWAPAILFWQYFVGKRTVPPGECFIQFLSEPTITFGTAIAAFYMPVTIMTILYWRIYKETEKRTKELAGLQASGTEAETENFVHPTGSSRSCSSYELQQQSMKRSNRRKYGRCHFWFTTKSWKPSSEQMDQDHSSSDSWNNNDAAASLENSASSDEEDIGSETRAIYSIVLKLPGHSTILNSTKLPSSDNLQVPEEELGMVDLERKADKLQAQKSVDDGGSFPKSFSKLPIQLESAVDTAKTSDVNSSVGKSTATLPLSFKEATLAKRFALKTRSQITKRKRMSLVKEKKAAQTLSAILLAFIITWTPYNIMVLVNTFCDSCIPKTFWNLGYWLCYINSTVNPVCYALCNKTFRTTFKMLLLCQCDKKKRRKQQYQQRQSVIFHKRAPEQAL
Method in brief: (§1)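 Agonist-mode calcium flux: 11-point dose responses, triplicate wells, fluorescence followed for 3 minutes. Cells are M3_CHO or M5_CHO lines (human receptors) with Ca++ indicator in probenecid-containing HEPES/HBSS buffer. Percent activity is referenced to carbachol EC100, and curves come from four-parameter nonlinear regression.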

[3] = target: T3, human cloned CHRM5 receptor (M5_CHO) (Homo sapiens, UniProt P08912); test: CHRM5 Ca++ Flux Assay (agonist mode, FDSS 7000EX); conditions: for M5 FDSS PA: Percent Activity measured to EC100 of Carbachol; for pEC50: agonist mode, geometric mean if tested more than once, read-out: M5 FDSS EC50
T3 construct: expressed in transfected cells; host or cells: CHO (M5_CHO)
T3 sequence (P08912 1-532): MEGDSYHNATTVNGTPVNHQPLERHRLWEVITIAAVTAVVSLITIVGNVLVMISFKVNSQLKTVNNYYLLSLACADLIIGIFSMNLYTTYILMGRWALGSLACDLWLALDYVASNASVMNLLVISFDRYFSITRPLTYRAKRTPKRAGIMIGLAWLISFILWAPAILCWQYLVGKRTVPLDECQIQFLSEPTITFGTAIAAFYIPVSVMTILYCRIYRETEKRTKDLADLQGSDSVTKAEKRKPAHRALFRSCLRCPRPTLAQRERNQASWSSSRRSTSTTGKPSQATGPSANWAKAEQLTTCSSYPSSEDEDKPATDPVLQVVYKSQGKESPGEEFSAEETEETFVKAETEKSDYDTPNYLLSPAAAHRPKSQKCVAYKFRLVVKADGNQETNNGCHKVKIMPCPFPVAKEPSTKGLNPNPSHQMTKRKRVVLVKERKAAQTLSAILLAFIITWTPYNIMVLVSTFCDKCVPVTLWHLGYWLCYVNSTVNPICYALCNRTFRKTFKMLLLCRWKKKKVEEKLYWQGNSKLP
Method in brief: as §1

| Structure (SMILES) | M4 FDSS PA [1] | pEC50 [1] | M3 FDSS PA [2] | pEC50 [2] | M5 FDSS PA [3] | pEC50 [3] |
| --- | --- | --- | --- | --- | --- | --- |
| O=C(N1CC2(CC[C@@H](N3CCC(c4ccccc4OC(F)(F)F)CC3)C2)C1)C1(F)CC1 (single isomer, unassigned) [Example 9A, (R)-(1-fluorocyclopropyl)(6-(4-(2-(trifluoromethoxy)phenyl)piperidin-1-yl)-2-azaspiro[3.4]octan-2-yl)methanone or (S)-(1-fluorocyclopropyl)(6-(4-(2-(trifluoromethoxy)phenyl)piperidin-1-yl)-2-azaspiro[3.4]octan-2-yl)methanone] | 36% | 6.47 | 0% | < 4.60 | 0% | < 4.60 |
| O=C(N1CC2(CC[C@@H](N3CCC(c4ccccc4OC(F)(F)F)CC3)C2)C1)C1(F)CC1 (single isomer, unassigned) [Example 9B, (R)-(1-fluorocyclopropyl)(6-(4-(2-(trifluoromethoxy)phenyl)piperidin-1-yl)-2-azaspiro[3.4]octan-2-yl)methanone or (S)-(1-fluorocyclopropyl)(6-(4-(2-(trifluoromethoxy)phenyl)piperidin-1-yl)-2-azaspiro[3.4]octan-2-yl)methanone] | 66% | 8.30 | 0% | < 4.60 | 0% | < 4.60 |
| O=C(N1CC2(CC[C@@H](N3CCC(c4cc(F)ccc4OC4CCOCC4)CC3)C2)C1)C1(F)CC1 (single isomer, unassigned) [Example 9C, (R)-(6-(4-(5-fluoro-2-((tetrahydro-2H-pyran-4-yl)oxy)phenyl)piperidin-1-yl)-2-azaspiro[3.4]octan-2-yl)(1-fluorocyclopropyl)methanone or (S)-(6-(4-(5-fluoro-2-((tetrahydro-2H-pyran-4-yl)oxy)phenyl)piperidin-1-yl)-2-azaspiro[3.4]octan-2-yl)(1-fluorocyclopropyl)methanone] | 54% | 9.00 | 0% | < 4.60 | 0% | < 4.60 |
| O=C(N1CC2(CC[C@@H](N3CCC(c4cc(F)ccc4OC4CCOCC4)CC3)C2)C1)C1(F)CC1 (single isomer, unassigned) [Example 9D, (R)-(6-(4-(5-fluoro-2-((tetrahydro-2H-pyran-4-yl)oxy)phenyl)piperidin-1-yl)-2-azaspiro[3.4]octan-2-yl)(1-fluorocyclopropyl)methanone or (S)-(6-(4-(5-fluoro-2-((tetrahydro-2H-pyran-4-yl)oxy)phenyl)piperidin-1-yl)-2-azaspiro[3.4]octan-2-yl)(1-fluorocyclopropyl)methanone] | 43% | 7.12 | 0% | < 4.60 | 0% | < 4.60 |
| O=C(N1CC2(CC[C@@H](N3CCC(c4ccccc4OC4CCOCC4)CC3)C2)C1)C1(F)CC1 (single isomer, unassigned) [Example 9E, (R)-(1-fluorocyclopropyl)(6-(4-(2-((tetrahydro-2H-pyran-4-yl)oxy)phenyl)piperidin-1-yl)-2-azaspiro[3.4]octan-2-yl)methanone or (S)-(1-fluorocyclopropyl)(6-(4-(2-((tetrahydro-2H-pyran-4-yl)oxy)phenyl)piperidin-1-yl)-2-azaspiro[3.4]octan-2-yl)methanone] | 55% | 9.00 | 0% | < 4.60 | 0% | < 4.60 |

Results, then the compound that gave them:

| M4 FDSS PA [1] | pEC50 [1] | M3 FDSS PA [2] | pEC50 [2] | M5 FDSS PA [3] | pEC50 [3] | Structure (SMILES) |
| --- | --- | --- | --- | --- | --- | --- |
| 47% | 6.81 | 0% | < 4.60 | 0% | < 4.60 | O=C(N1CC2(CC[C@@H](N3CCC(c4ccccc4OC4CCOCC4)CC3)C2)C1)C1(F)CC1 (single isomer, unassigned) [Example 9F, (R)-(1-fluorocyclopropyl)(6-(4-(2-((tetrahydro-2H-pyran-4-yl)oxy)phenyl)piperidin-1-yl)-2-azaspiro[3.4]octan-2-yl)methanone or (S)-(1-fluorocyclopropyl)(6-(4-(2-((tetrahydro-2H-pyran-4-yl)oxy)phenyl)piperidin-1-yl)-2-azaspiro[3.4]octan-2-yl)methanone] |
| 14% | 7.12 | 0% | < 4.60 | 0% | < 4.60 | O=C(N1CC2(CC[C@@H](N3CCC(c4ccccc4C4(O)CCOCC4)CC3)C2)C1)C1(F)CC1 (single isomer, unassigned) [Example 9G, (R)-(1-fluorocyclopropyl)(6-(4-(2-(4-hydroxytetrahydro-2H-pyran-4-yl)phenyl)piperidin-1-yl)-2-azaspiro[3.4]octan-2-yl)methanone or (S)-(1-fluorocyclopropyl)(6-(4-(2-(4-hydroxytetrahydro-2H-pyran-4-yl)phenyl)piperidin-1-yl)-2-azaspiro[3.4]octan-2-yl)methanone] |
| 0% | < 4.60 | 0% | < 4.60 | 0% | < 4.60 | O=C(N1CC2(CC[C@@H](N3CCC(c4ccccc4C4(O)CCOCC4)CC3)C2)C1)C1(F)CC1 (single isomer, unassigned) [Example 9H, (R)-(1-fluorocyclopropyl)(6-(4-(2-(4-hydroxytetrahydro-2H-pyran-4-yl)phenyl)piperidin-1-yl)-2-azaspiro[3.4]octan-2-yl)methanone or (S)-(1-fluorocyclopropyl)(6-(4-(2-(4-hydroxytetrahydro-2H-pyran-4-yl)phenyl)piperidin-1-yl)-2-azaspiro[3.4]octan-2-yl)methanone] |
| 17% | 7.82 | 0% | < 4.60 | 0% | < 4.60 | O=C(N1CC2(CC[C@@H](N3CCC(c4cc(F)ccc4C4(O)CCOCC4)CC3)C2)C1)C1(F)CC1 (single isomer, unassigned) [Example 9I, (R)-(6-(4-(5-fluoro-2-(4-hydroxytetrahydro-2H-pyran-4-yl)phenyl)piperidin-1-yl)-2-azaspiro[3.4]octan-2-yl)(1-fluorocyclopropyl)methanone or (S)-(6-(4-(5-fluoro-2-(4-hydroxytetrahydro-2H-pyran-4-yl)phenyl)piperidin-1-yl)-2-azaspiro[3.4]octan-2-yl)(1-fluorocyclopropyl)methanone] |
| 1% | 6.62 | 0% | < 4.60 | 0% | < 4.60 | O=C(N1CC2(CC[C@@H](N3CCC(c4cc(F)ccc4C4(O)CCOCC4)CC3)C2)C1)C1(F)CC1 (single isomer, unassigned) [Example 9J, (R)-(6-(4-(5-fluoro-2-(4-hydroxytetrahydro-2H-pyran-4-yl)phenyl)piperidin-1-yl)-2-azaspiro[3.4]octan-2-yl)(1-fluorocyclopropyl)methanone or (S)-(6-(4-(5-fluoro-2-(4-hydroxytetrahydro-2H-pyran-4-yl)phenyl)piperidin-1-yl)-2-azaspiro[3.4]octan-2-yl)(1-fluorocyclopropyl)methanone] |
| 56% | 9.00 | −1% | < 4.60 | 0% | < 4.60 | O=C(N1CC2(CC[C@@H](N3CCC(c4cc(F)ccc4C4CCOCC4)CC3)C2)C1)C1(F)CC1 (single isomer, unassigned) [Example 9K, (R)-(6-(4-(5-fluoro-2-(tetrahydro-2H-pyran-4-yl)phenyl)piperidin-1-yl)-2-azaspiro[3.4]octan-2-yl)(1-fluorocyclopropyl)methanone or (S)-(6-(4-(5-fluoro-2-(tetrahydro-2H-pyran-4-yl)phenyl)piperidin-1-yl)-2-azaspiro[3.4]octan-2-yl)(1-fluorocyclopropyl)methanone] |
